According to patent US6737383B1, “Herbicidal oxadiazolidines” (priority 1999, dated 2004):

How the values were obtained:
giant foxtail = assay: Test B pre/postemergence giant foxtail; format: in vivo, Setaria faberii
Procedure, shortened: (§1)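 Herbicidal effect was estimated by eye on a ten-point control scale after plants spent twelve to sixteen days in a greenhouse following soil or foliar treatment. Foliar sprays targeted plants at one to four leaves; all doses were formulated in a non-phytotoxic solvent with surfactant.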

wild oat = assay: Test B pre/postemergence wild oat; format: in vivo, Avena fatua
Procedure, shortened: as §1

bedstraw = assay: Test B pre/postemergence bedstraw; format: in vivo, Galium aparine
Procedure, shortened: as §1

surinam grass = assay: Test B pre/postemergence surinam grass; format: in vivo, Brachiaria decumbens
Procedure, shortened: as §1

bamyardgrass = assay: Test B flood test barnyardgrass; format: in vivo, Echinochloa crus-galli
Procedure, shortened: (§2)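 Flood test on plants grown to the 2-leaf stage; treated plants kept in greenhouse twelve to sixteen days, then visually rated against controls on a 0 (no effect) to 10 (complete control) scale.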

wheat = assay: Test B pre/postemergence wheat; format: in vivo, Triticum aestivum
Procedure, shortened: as §1

morningglory = assay: Test B pre/postemergence morningglory; format: in vivo, Ipomoea hederacea
Procedure, shortened: as §1

cocklebur = assay: Test B pre/postemergence cocklebur; format: in vivo, Xanthium strumarium
Procedure, shortened: as §1

corn = assay: Test B pre/postemergence corn; format: in vivo, Zea mays
Procedure, shortened: as §1

rape = assay: Test B pre/postemergence rape; format: in vivo, Brassica napus
Procedure, shortened: as §1

duck salad = assay: Test B flood test duck salad; format: in vivo, Heteranthera limosa
Procedure, shortened: as §2

smallflower flatsedge = assay: Test B flood test smallflower flatsedge; format: in vivo, Cyperus difformis
Procedure, shortened: as §2

blackgrass = assay: Test B pre/postemergence blackgrass; format: in vivo, Alopecurus myosuroides
Procedure, shortened: as §1

crabgrass = assay: Test B pre/postemergence crabgrass; format: in vivo, Digitaria sanguinalis
Procedure, shortened: as §1

soybean = assay: Test B pre/postemergence soybean; format: in vivo, Glycine max
Procedure, shortened: as §1

velvetleaf = assay: Test B pre/postemergence velvetleaf; format: in vivo, Abutilon theophrasti
Procedure, shortened: as §1

[1] = Preemergence, Rate 31 g/ha, visual rating, scale 0 to 10 (0 no effect, 10 complete control)
[2] = Preemergence, Rate 62 g/ha, scale of 0 to 10 where 0 is no effect and 10 is complete control
[3] = Preemergence, Rate 250 g/ha, scale of 0 to 10 where 0 is no effect and 10 is complete control
[4] = Rate 31 g/ha, Postemergence, scale 0 to 10
[5] = Rate 62 g/ha, Postemergence, scale 0 to 10, 0 no effect, 10 complete control
[6] = Rate 125 g/ha, Postemergence, scale of 0 to 10 where 0 is no effect and 10 is complete control
[7] = Rate 125 g/ha, Preemergence, scale of 0 to 10 where 0 is no effect and 10 is complete control
[8] = Rate 250 g/ha, Postemergence, scale of 0 to 10 where 0 is no effect and 10 is complete control
[9] = Rate 31 g/ha, Pre-emergence section (flood test species), scale 0 to 10
[10] = Rate 62 g/ha, headed Pre-emergence (flood test species), scale 0 to 10 (0 no effect, 10 complete control)
[11] = Rate 125 g/ha, Pre-emergence, flood test species, scale 0 to 10 where 0 is no effect and 10 is complete control
[12] = Rate 250 g/ha, Pre-emergence, flood-test species, scale 0 to 10, 0 is no effect, 10 is complete control

## CC(Cl)=CCn1c(=O)on(C(=O)N(c2ccc(F)cc2)C(C)C)c1=O [Compound 285]
Giant foxtail; [1]
  Giant foxtail plant response rating: 7
Giant foxtail; [2]
  Giant foxtail plant response rating: 8
Giant foxtail; [3]
  Giant foxtail plant response rating: 10
Giant foxtail; [4]
  Giant foxtail plant response rating: 0
Giant foxtail; [5]
  Giant foxtail plant response rating: 0
Giant foxtail; [6]
  Giant foxtail plant response rating: 0
Giant foxtail; [7]
  Giant foxtail plant response rating: 9
Giant foxtail; [8]
  Plant response rating, Giant foxtail: 0
Wild oat; [1]
  Wild oats plant response rating: 0
Wild oat; [2]
  Wild oats plant response rating: 0
Wild oat; [3]
  Wild oats plant response rating: 3
Wild oat; [5]
  Wild oats plant response rating: 0
Wild oat; [6]
  Wild oats plant response rating: 0
Wild oat; [8]
  Plant response rating, Wild oats: 0
bedstraw; [1]
  Bedstraw plant response rating: 0
bedstraw; [2]
  Bedstraw plant response rating: 0
bedstraw; [3]
  Bedstraw plant response rating: 8
bedstraw; [4]
  Bedstraw plant response rating: 0
bedstraw; [5]
  Bedstraw plant response rating: 0
bedstraw; [6]
  Bedstraw plant response rating: 5
bedstraw; [7]
  Bedstraw plant response rating: 0
bedstraw; [8]
  Plant response rating, Bedstraw: 7
Surinam grass; [1]
  B. signalgrass plant response rating: 0
Surinam grass; [2]
  B. signalgrass plant response rating: 2
Surinam grass; [3]
  B. signalgrass plant response rating: 10
Surinam grass; [4]
  B. signalgrass plant response rating: 0
Surinam grass; [5]
  B. signalgrass plant response rating: 0
Surinam grass; [6]
  B. signalgrass plant response rating: 0
Surinam grass; [7]
  B. signalgrass plant response rating: 5
Surinam grass; [8]
  Plant response rating, B. signalgrass: 0
bamyardgrass; [9]
  Barnyardgrass plant response rating: 0
bamyardgrass; [10]
  Barnyardgrass plant response rating: 0
bamyardgrass; [11]
  Barnyardgrass plant response rating: 0
bamyardgrass; [12]
  Barnyardgrass plant response rating: 7
wheat; [1]
  Wheat plant response rating: 0
wheat; [2]
  Wheat plant response rating: 0
wheat; [3]
  Wheat plant response rating: 0
wheat; [5]
  Wheat plant response rating: 0
wheat; [6]
  Wheat plant response rating: 0
wheat; [7]
  Wheat plant response rating: 0
wheat; [8]
  Plant response rating, Wheat: 0
morningglory; [1]
  Morningglory plant response rating: 0
morningglory; [2]
  Morningglory plant response rating: 0
morningglory; [3]
  Morningglory plant response rating: 0
morningglory; [4]
  Morningglory plant response rating: 1
morningglory; [5]
  Morningglory plant response rating: 3
morningglory; [6]
  Morningglory plant response rating: 5
morningglory; [7]
  Morningglory plant response rating: 0
morningglory; [8]
  Plant response rating, Morningglory: 5
cocklebur; [1]
  Cocklebur plant response rating: 0
cocklebur; [2]
  Cocklebur plant response rating: 0
cocklebur; [3]
  Cocklebur plant response rating: 0
cocklebur; [4]
  Cocklebur plant response rating: 0
cocklebur; [5]
  Cocklebur plant response rating: 0
cocklebur; [6]
  Cocklebur plant response rating: 0
cocklebur; [7]
  Cocklebur plant response rating: 0
cocklebur; [8]
  Plant response rating, Cocklebur: 0
corn; [1]
  Corn plant response rating: 0
corn; [2]
  Corn plant response rating: 0
corn; [3]
  Corn plant response rating: 0
corn; [4]
  Corn plant response rating: 0
corn; [5]
  Corn plant response rating: 0
corn; [6]
  Corn plant response rating: 0
corn; [7]
  Corn plant response rating: 0
corn; [8]
  Plant response rating, Corn: 0
rape; [1]
  Rape plant response rating: 0
rape; [2]
  Rape plant response rating: 0
rape; [3]
  Rape plant response rating: 3
rape; [4]
  Rape plant response rating: 0
rape; [5]
  Rape plant response rating: 0
rape; [6]
  Rape plant response rating: 0
rape; [7]
  Rape plant response rating: 0
rape; [8]
  Plant response rating, Rape: 0
Duck salad; [9]
  Ducksalad plant response rating: 0
Duck salad; [10]
  Ducksalad plant response rating: 0
Duck salad; [11]
  Ducksalad plant response rating: 0
Duck salad; [12]
  Ducksalad plant response rating: 0
Smallflower flatsedge; [9]
  S. Flatsedge plant response rating: 0
Smallflower flatsedge; [10]
  S. Flatsedge plant response rating: 0
Smallflower flatsedge; [11]
  S. Flatsedge plant response rating: 0
Smallflower flatsedge; [12]
  S. Flatsedge plant response rating: 0
blackgrass; [1]
  Blackgrass plant response rating: 0
blackgrass; [2]
  Blackgrass plant response rating: 0
blackgrass; [3]
  Blackgrass plant response rating: 5
blackgrass; [4]
  Blackgrass plant response rating: 0
blackgrass; [5]
  Blackgrass plant response rating: 0
blackgrass; [6]
  Blackgrass plant response rating: 2
blackgrass; [7]
  Blackgrass plant response rating: 4
blackgrass; [8]
  Plant response rating, Blackgrass: 7
crabgrass; [1]
  Crabgrass plant response rating: 0
crabgrass; [2]
  Crabgrass plant response rating: 4
crabgrass; [3]
  Crabgrass plant response rating: 8
crabgrass; [4]
  Crabgrass plant response rating: 0
crabgrass; [5]
  Crabgrass plant response rating: 0
crabgrass; [6]
  Crabgrass plant response rating: 3
crabgrass; [7]
  Crabgrass plant response rating: 8
crabgrass; [8]
  Plant response rating, Crabgrass: 7
soybean; [1]
  Soybean plant response rating: 0
soybean; [2]
  Soybean plant response rating: 0
soybean; [3]
  Soybean plant response rating: 0
soybean; [5]
  Soybean plant response rating: 2
soybean; [6]
  Soybean plant response rating: 2
soybean; [7]
  Soybean plant response rating: 0
soybean; [8]
  Plant response rating, Soybean: 3
velvetleaf; [1]
  Velvetleaf plant response rating: 0
velvetleaf; [2]
  Velvetleaf plant response rating: 0
velvetleaf; [3]
  Velvetleaf plant response rating: 3
velvetleaf; [5]
  Velvetleaf plant response rating: 0
velvetleaf; [6]
  Velvetleaf plant response rating: 0
velvetleaf; [7]
  Velvetleaf plant response rating: 2
velvetleaf; [8]
  Plant response rating, Velvetleaf: 1
